Read-outs that look alike come from different tables or passages of the source.
What was measured:
Type in all cases: in vivo
[1] = tested on: Diamond Back Moth (Plutella xylostella); test: B.1 Diamond Back Moth (Plutella xylostella), cabbage leaf dip; conditions: foliar
Summary of the method: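 Cabbage leaves dipped in compound in 1:1 water:acetone with 0.01% Kinetic HV surfactant, air-dried, then infested with ten 3rd-instar larvae on moist filter paper. Mortality scored at 72 h after treatment; feeding damage rated on a 0-100% scale.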

[2] = tested on: Mediterranean Fruitfly (Ceratitis capitata); test: B.6 Mediterranean Fruitfly (Ceratitis capitata), microtiter plate insect diet; conditions: 120 h, read-out: mortality (egg and larval)
Summary of the method: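 Insect diet with 50-80 C. capitata eggs sprayed with compounds formulated in 75% water/25% DMSO, at different concentrations, two replications. Incubation at about 28±1° C and 80±5% relative humidity for 5 days, then egg and larval mortality assessed visually.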

[3] = tested on: Vetch Aphid (Megoura viciae); test: B.8 Vetch Aphid (Megoura viciae), broad bean leaf disks; conditions: foliar, 120 h
Description: B.8 Vetch Aphid (Megoura viciae)
For evaluating control of vetch aphid (Megoura viciae) through contact or systemic means the test unit consisted of 24-well-microtiter plates containing broad bean leaf disks.
The compounds were formulated using a solution containing 75% v/v water and 25% v/v DMSO. Different concentrations of formulated compounds were sprayed onto the leaf disks at 2.5 μl, using a custom built micro atomizer, at two replications.
After application, the leaf disks were air-dried and 5-8 adult aphids placed on the leaf disks inside the microtiter plate wells. The aphids were then allowed to suck on the treated leaf disks and incubated at about 23±1° C. and about 50±5% relative humidity for 5 days. Aphid mortality and fecundity was then visually assessed.

[4] = tested on: Tobacco Budworm (Heliothis virescens); test: B.7 Tobacco Budworm (Heliothis virescens) I, microtiter plate insect diet; conditions: 120 h, read-out: mortality (egg and larval)
Summary of the method: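 96-well plates with insect diet and 15-25 H. virescens eggs; compounds in 75% water/25% DMSO sprayed onto diet at several concentrations, two replicates. Plates held at about 28±1° C. and 80±5% relative humidity for 5 days, then egg and larval mortality scored visually.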

[5] = tested on: Orchid thrips (dichromothrips corbetti); test: B.12 Orchid thrips (dichromothrips corbetti), floral-immersion technique; conditions: adult thrips on dipped orchid petals, 72 hours after treatment, in comparison with untreated controls
Summary of the method: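 Whole orchid flower petals were dipped in compound in 1:1 acetone:water with 0.01% v/v Kinetic HV, dried, and enclosed with about 20 adult thrips. They were held under continuous light at about 28° C. Live thrips were counted and percent mortality recorded at 72 hours.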

[6] = tested on: Yellow Fever Mosquito (Aedes aegypti); test: whole plant or invertebrate; conditions: 48 h, freshly hatched larvae in tap water, 2 days, in comparison with untreated controls, read-out: mortality (larval)
Summary of the method: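 Freshly hatched A. aegypti larvae, 5–15 per well, were held in 200 μl tap water. Compounds formulated in 75:25 water:DMSO were sprayed at various concentrations, 2.5 μl per well by micro-atomizer, in two replicates.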

[7] = tested on: Silverleaf Whitefly (Bemisia argentifoli); test: B.5 Silverleaf Whitefly (Bemisia argentifoli), sprayed cotton plants; conditions: 72 h, whitefly adults on sprayed cotton plants, 3 days after treatment, in comparison with untreated controls
Description: B.5 Silverleaf Whitefly (Bemisia argentifoli)
The active compounds were formulated by a Tecan liquid handler in 100% cyclohexanone as a 10,000 ppm solution supplied in tubes. The 10,000 ppm solution was serially diluted in 100% cyclohexanone to make interim solutions. These served as stock solutions for which final dilutions were made by the Tecan in 50% acetone:50% water (v/v) into 5 or 10 ml glass vials. A nonionic surfactant (Kinetic®) was included in the solution at a volume of 0.01% (v/v). The vials were then inserted into an automated electrostatic sprayer equipped with an atomizing nozzle for application to plants/insects.
Cotton plants at the cotyledon stage (one plant per pot) were sprayed by an automated electrostatic plant sprayer equipped with an atomizing spray nozzle. The plants were dried in the sprayer fume hood and then removed from the sprayer. Each pot was placed into a plastic cup and about 10 to 12 whitefly adults (approximately 3-5 days old) were introduced. The insects were collected using an aspirator and a nontoxic Tygon® tubing connected to a barrier pipette tip. The tip, containing the collected insects, was then gently inserted into the soil containing the treated plant, allowing insects to crawl out of the tip to reach the foliage for feeding. Cups were covered with a reusable screened lid. Test plants were maintained in a growth room at about 25° C. and about 20-40% relative humidity for 3 days, avoiding direct exposure to fluorescent light (24 hour photoperiod) to prevent trapping of heat inside the cup. Mortality was assessed 3 days after treatment, compared to untreated control plants.

[8] = tested on: Southern Armyworm (Spodoptera eridania), 2nd Instar Larvae; test: B.10 Southern Armyworm (Spodoptera eridania), 2nd Instar Larvae, sprayed lima bean plants; conditions: 96 h
Summary of the method: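 Lima bean plants at 1st true leaf stage sprayed electrostatically with compound in 50% acetone:50% water plus 0.01% nonionic surfactant, then infested with about 10 to 11 2nd instar larvae. Mortality and reduced feeding assessed 4 days after treatment at about 25° C versus untreated plants.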

[9] = tested on: Boll Weevil (Anthonomus grandis); test: B.3 Boll Weevil (Anthonomus grandis), microtiter plate insect diet; conditions: 120 h, read-out: mortality (egg and larval)
Summary of the method: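 Compounds in 25% DMSO/water sprayed at several concentrations onto insect diet in microtiter wells holding 5–10 A. grandis eggs, two replicates. Plates kept 5 days at about 25±1 °C and 75±5% RH. Egg and larval mortality scored visually.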

[10] = tested on: Green Peach Aphid (Myzus persicae); test: B.9 Green Peach Aphid (Myzus persicae), sprayed bell pepper plants; conditions: 120 h, infested bell pepper plants sprayed, after 5 days, in comparison with untreated controls
Summary of the method: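 Bell pepper plants at first true-leaf stage, infested with 30-50 aphids each, were sprayed electrostatically with compound in 50% acetone:water plus 0.01% nonionic surfactant. Held at about 25° C, 24-hr light, 20-40% RH. Mortality versus untreated controls scored after 5 days.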

[11] = tested on: Orchid thrips (dichromothrips corbetti); test: B.2 Orchid thrips (dichromothrips corbetti), floral-immersion technique; conditions: adult thrips on dipped orchid petals, 72 hours after treatment, in comparison with untreated controls
Description: B.2 Orchid thrips (dichromothrips corbetti)
Dichromothrips corbetti adults used for bioassay were obtained from a colony maintained continuously under laboratory conditions. For testing purposes, the test compound is diluted in a 1:1 mixture of acetone:water (vol:vol), plus Kinetic HV at a rate of 0.01% v/v.
Thrips potency of each compound was evaluated by using a floral-immersion technique. All petals of individual, intact orchid flowers were dipped into treatment solution and allowed to dry in Petri dishes. Treated petals were placed into individual resealable plastic along with about 20 adult thrips. All test arenas were held under continuous light and a temperature of about 28° C. for duration of the assay. After 3 days, the numbers of live thrips were counted on each petal. The percent mortality was recorded 72 hours after treatment.

[12] = tested on: Cowpea Aphid (aphis craccivora); test: B.4 Cowpea Aphid (aphis craccivora), sprayed potted cowpea plants; conditions: after 72 hours, in comparison with untreated controls
Description: B.4 Cowpea Aphid (aphis craccivora)
The active compound is dissolved at the desired concentration in a mixture of 1:1 (vol:vol) distilled water:acetone. Surfactant (Kinetic HV) is added at a rate of 0.01% (vol/vol). The test solution is prepared at the day of use.
Potted cowpea plants were colonized with approximately 50-100 aphids of various stages by manually transferring a leaf tissue cut from infested plant 24 hours before application. Plants were sprayed after the pest population has been recorded. Treated plants are maintained on light carts at about 28° C. Percent mortality was assessed after 72 hours.

[13] = 500 ppm, 3rd instar larvae on dipped cabbage leaves, 72 hours after treatment, in comparison with untreated controls, read-out: mortality
[14] = 800 ppm, sprayed onto insect diet, 5 days, in comparison with untreated controls
[15] = 2500 ppm, adult aphids on sprayed leaf disks, 5 days, in comparison with untreated controls, read-out: mortality
[16] = 300 ppm, larvae on sprayed lima bean plants, 4 days after treatment, in comparison with untreated controls, read-out: mortality

CC(C)c1ccccc1N1CCSC1=N/N=C/c1ccc2c(ccc3c2ncn3-c2ccc(OC(F)(F)F)cc2)c1 (stereo in doubt) [C-53, (E)-3-(2-isopropylphenyl)-N-[(E)-[3-[4-(trifluoromethoxy)phenyl]benzo[e]benzimidazol-7-yl]methyleneamino] thiazolidin-2-imine]
≥ 75%: mortality at 500 ppm [1, 13] | mortality at 800 ppm [2, 14] | mortality at 2500 ppm [3, 15] | mortality at 800 ppm [4, 14] | mortality at 500 ppm [5] | mortality at 800 ppm [6] | mortality at 300 ppm [7] | mortality at 300 ppm [8, 16] | mortality at 800 ppm [9, 14]

Cc1cccc(C)c1NC(=S)N/N=C/c1ccc2c(ccc3c2ncn3-c2ccc(OC(F)(F)F)cc2)c1 [C-1, 1-(2,6-dimethylphenyl)-3-[(E)-[3-[4-(trifluoromethoxy)phenyl]benzo[e]benzimidazol-7-yl]methyleneamino]thiourea]
≥ 75%: mortality at 500 ppm [1, 13] | mortality at 800 ppm [2, 14] | mortality at 800 ppm [10] | mortality at 800 ppm [4, 14] | mortality at 500 ppm [5] | mortality at 800 ppm [6] | mortality at 300 ppm [8, 16] | mortality at 300 ppm [11] | mortality at 800 ppm [9, 14]

Fc1ccc(NC(=S)N/N=C/c2ccc3c(ccc4c3ncn4-c3ccc(OC(F)(F)F)cc3)c2)c(F)c1 [C-5, 1-(2,4-difluorophenyl)-3-[(E)-[3-[4-(trifluoromethoxy)phenyl]benzo[e]benzimidazol-7-yl]methyleneamino] thiourea]
≥ 75%: mortality at 500 ppm [1, 13] | mortality at 800 ppm [2, 14] | mortality at 2500 ppm [3, 15] | mortality at 800 ppm [4, 14] | mortality at 800 ppm [9, 14]

Cc1ccccc1NC(=S)N/N=C/c1ccc2c(c1)CCc1c-2nnn1-c1ccc(OC(F)(F)F)cc1 [C-34, 1-(o-tolyl)-3-[[3-[4-(trifluoromethoxy)phenyl]-5,8-dihydro-4H-benzo[e]benzotriazol-7-ylidene]methylimino] thiourea]
≥ 75%: mortality at 800 ppm [2, 14] | mortality at 500 ppm [12]

O=[N+]([O-])c1ccccc1NC(=S)N/N=C/c1ccc2c(c1)CCc1c-2nnn1-c1ccc(OC(F)(F)F)cc1 [C-43, 1-(2-nitrophenyl)-3-[[3-[4-(trifluoromethoxy)phenyl]-5,6-dihydro-4H-benzo[e]benzotriazol-7-ylidene]methylimino]thiourea]
≥ 75%: mortality at 800 ppm [10] | mortality at 2500 ppm [3, 15]

CC(OC(=O)Nc1ccc2c(ccc3c2ncn3-c2ccc(OC(F)(F)F)cc2)c1)c1ccc(Cl)cn1 (stereo not drawn) [C-56, 1-(5-chloro-2-pyridyl)ethyl N-[3-[4-(trifluoromethoxy)phenyl]benzo[e]benzimidazol-7-yl]carbamate]
≥ 75%: mortality at 500 ppm ([1]; 72 h) | mortality at 800 ppm [2] | mortality at 2500 ppm [3] | mortality at 800 ppm [4] | mortality at 800 ppm [6] | mortality at 300 ppm [8] | mortality at 800 ppm [9]

Cc1cccc(C)c1NC(=S)N/N=C/c1ccc2c(ccc3c2ncn3-c2ccc(C(F)(F)F)cc2)c1 [C-86, 1-(2,6-dimethylphenyl)-3-[(E)-[3-[4-(trifluoromethyl)phenyl]benzo[e]benzimidazol-7-yl]methyleneamino]thiourea]
≥ 75%: mortality at 500 ppm [1, 13] | mortality at 800 ppm [2, 14] | mortality at 800 ppm [10] | mortality at 2500 ppm [3, 15] | mortality at 800 ppm [4, 14] | mortality at 500 ppm [5] | mortality at 800 ppm [6] | mortality at 300 ppm [8, 16] | mortality at 800 ppm [9, 14]

Cc1ccccc1NC(=S)N(C)/N=C/c1ccc2c(ccc3c2ncn3-c2ccc(OC(F)(F)F)cc2)c1 [C-87, 1-methyl-3-(o-tolyl)-1-[(E)-[3-[4-(trifluoromethoxy)phenyl]benzo[e]benzimidazol-7-yl]methyleneamino]thiourea]
≥ 75%: mortality at 500 ppm [1, 13] | mortality at 800 ppm [2, 14] | mortality at 500 ppm [12] | mortality at 800 ppm [6] | mortality at 800 ppm [9, 14]

Cc1ccc(-n2cnc3c4ccc(/C=N/NC(=S)Nc5c(C)cccc5C)cc4ccc32)cc1 [C-105, 1-(2,6-dimethylphenyl)-3-[(E)-[3-(p-tolyl)benzo[e]benzimidazol-7-yl]methyleneamino]thiourea]
≥ 75%: mortality at 800 ppm [2, 14] | mortality at 2500 ppm [3, 15] | mortality at 800 ppm [9, 14]

Reference: patent US9497970B2, “Pesticide compounds” (priority 2013, dated 2016)
